Test results reported in PMC4620497 (Scientific Reports, 2015).

Experiments:
Experiment in all cases: KINOMEscan panel screen
Type in all cases: binding
Settings in all cases: read-out: Percent Control(%)
[1] = biological target: T1, ERK4 (Homo sapiens, UniProt P31152)
T1 construct: purchased DiscoveRx KINOMEscan (Ambit Biosciences)

[2] = biological target: T2, MST4 (Homo sapiens, UniProt Q9P289)
T2 construct: purchased DiscoveRx KINOMEscan (Ambit Biosciences)

[3] = biological target: T3, CLK2 (Homo sapiens, UniProt P49760)
T3 construct: purchased DiscoveRx KINOMEscan (Ambit Biosciences)

[4] = biological target: T4, NEK10 (Homo sapiens, UniProt Q6ZWH5)
T4 construct: purchased DiscoveRx KINOMEscan (Ambit Biosciences)

[5] = biological target: T5, PLK3 (Homo sapiens, UniProt Q9H4B4)
T5 construct: purchased DiscoveRx KINOMEscan (Ambit Biosciences)

[6] = biological target: T6, DRAK1 (Homo sapiens, UniProt Q9UEE5)
T6 construct: purchased DiscoveRx KINOMEscan (Ambit Biosciences)
T6 sequence (Q9UEE5 whole entry): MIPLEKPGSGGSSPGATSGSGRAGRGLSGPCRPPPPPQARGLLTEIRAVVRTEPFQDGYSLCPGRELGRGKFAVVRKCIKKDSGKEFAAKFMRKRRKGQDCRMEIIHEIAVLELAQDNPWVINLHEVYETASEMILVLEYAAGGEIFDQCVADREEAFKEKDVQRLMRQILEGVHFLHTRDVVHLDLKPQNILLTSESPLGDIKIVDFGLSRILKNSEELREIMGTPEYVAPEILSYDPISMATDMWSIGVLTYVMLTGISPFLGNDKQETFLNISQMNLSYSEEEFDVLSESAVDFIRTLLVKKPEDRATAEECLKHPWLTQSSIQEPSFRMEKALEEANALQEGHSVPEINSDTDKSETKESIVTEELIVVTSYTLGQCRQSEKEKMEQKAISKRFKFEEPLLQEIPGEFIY

[7] = biological target: T7, AURKB (Homo sapiens, UniProt Q96GD4)
T7 construct: purchased DiscoveRx KINOMEscan (Ambit Biosciences)
T7 sequence (Q96GD4 whole entry): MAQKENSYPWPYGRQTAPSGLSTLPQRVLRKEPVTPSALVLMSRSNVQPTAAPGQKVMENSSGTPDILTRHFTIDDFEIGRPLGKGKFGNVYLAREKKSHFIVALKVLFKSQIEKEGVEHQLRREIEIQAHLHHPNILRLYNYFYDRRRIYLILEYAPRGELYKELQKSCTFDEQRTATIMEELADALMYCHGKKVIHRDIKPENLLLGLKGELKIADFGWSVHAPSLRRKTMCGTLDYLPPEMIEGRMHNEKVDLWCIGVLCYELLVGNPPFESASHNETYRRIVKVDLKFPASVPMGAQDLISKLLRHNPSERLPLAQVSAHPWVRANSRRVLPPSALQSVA

[8] = biological target: T8, MAP3K4 (Homo sapiens, UniProt Q9Y6R4)
T8 construct: purchased DiscoveRx KINOMEscan (Ambit Biosciences)

[9] = biological target: T9, DCAMKL3 (Homo sapiens, UniProt Q9C098)
T9 construct: purchased DiscoveRx KINOMEscan (Ambit Biosciences)

[10] = biological target: T10, CDK4-cyclinD3 (Homo sapiens, UniProt P11802)
T10 construct: purchased DiscoveRx KINOMEscan (Ambit Biosciences)

[11] = biological target: T11, BRSK2 (Homo sapiens, UniProt Q8IWQ3)
T11 construct: purchased DiscoveRx KINOMEscan (Ambit Biosciences)

[12] = biological target: T12, MYLK4 (Homo sapiens, UniProt Q86YV6)
T12 construct: purchased DiscoveRx KINOMEscan (Ambit Biosciences)

[13] = biological target: T13, JAK1(JH1domain-catalytic) (Homo sapiens, UniProt P23458)
T13 construct: JAK1(JH1domain-catalytic); purchased DiscoveRx KINOMEscan (Ambit Biosciences)

[14] = biological target: T14, BLK (Homo sapiens, UniProt P51451)
T14 construct: purchased DiscoveRx KINOMEscan (Ambit Biosciences)

[15] = biological target: LCK (Homo sapiens, UniProt P06239)
[16] = biological target: T15, TGFBR2 (Homo sapiens, UniProt P37173)
T15 construct: purchased DiscoveRx KINOMEscan (Ambit Biosciences)

[17] = biological target: T16, PIK3CA(H1047L) (Homo sapiens, UniProt P42336, H1047L)
T16 construct: purchased DiscoveRx KINOMEscan (Ambit Biosciences)

[18] = biological target: T17, EGFR(L747-E749del, A750P) (Homo sapiens, UniProt P00533, A750P/DEL747-749)
T17 construct: purchased DiscoveRx KINOMEscan (Ambit Biosciences)
T17 sequence (P00533 with tags, fused parts or gaps DEL747-749/A750P limits assumed): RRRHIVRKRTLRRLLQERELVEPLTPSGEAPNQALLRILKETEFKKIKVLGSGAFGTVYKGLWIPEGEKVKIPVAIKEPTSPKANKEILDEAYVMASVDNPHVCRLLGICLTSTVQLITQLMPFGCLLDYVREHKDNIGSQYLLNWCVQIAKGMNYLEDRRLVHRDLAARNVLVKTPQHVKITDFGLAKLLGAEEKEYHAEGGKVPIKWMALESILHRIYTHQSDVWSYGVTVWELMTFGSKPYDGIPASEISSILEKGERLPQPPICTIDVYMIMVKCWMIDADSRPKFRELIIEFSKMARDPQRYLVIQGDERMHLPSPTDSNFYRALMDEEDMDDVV

[19] = biological target: T18, EPHA1 (Homo sapiens, UniProt P21709)
T18 construct: purchased DiscoveRx KINOMEscan (Ambit Biosciences)

[20] = biological target: T19, FGFR4 (Homo sapiens, UniProt P22455)
T19 construct: purchased DiscoveRx KINOMEscan (Ambit Biosciences)
T19 sequence (P22455 22-802): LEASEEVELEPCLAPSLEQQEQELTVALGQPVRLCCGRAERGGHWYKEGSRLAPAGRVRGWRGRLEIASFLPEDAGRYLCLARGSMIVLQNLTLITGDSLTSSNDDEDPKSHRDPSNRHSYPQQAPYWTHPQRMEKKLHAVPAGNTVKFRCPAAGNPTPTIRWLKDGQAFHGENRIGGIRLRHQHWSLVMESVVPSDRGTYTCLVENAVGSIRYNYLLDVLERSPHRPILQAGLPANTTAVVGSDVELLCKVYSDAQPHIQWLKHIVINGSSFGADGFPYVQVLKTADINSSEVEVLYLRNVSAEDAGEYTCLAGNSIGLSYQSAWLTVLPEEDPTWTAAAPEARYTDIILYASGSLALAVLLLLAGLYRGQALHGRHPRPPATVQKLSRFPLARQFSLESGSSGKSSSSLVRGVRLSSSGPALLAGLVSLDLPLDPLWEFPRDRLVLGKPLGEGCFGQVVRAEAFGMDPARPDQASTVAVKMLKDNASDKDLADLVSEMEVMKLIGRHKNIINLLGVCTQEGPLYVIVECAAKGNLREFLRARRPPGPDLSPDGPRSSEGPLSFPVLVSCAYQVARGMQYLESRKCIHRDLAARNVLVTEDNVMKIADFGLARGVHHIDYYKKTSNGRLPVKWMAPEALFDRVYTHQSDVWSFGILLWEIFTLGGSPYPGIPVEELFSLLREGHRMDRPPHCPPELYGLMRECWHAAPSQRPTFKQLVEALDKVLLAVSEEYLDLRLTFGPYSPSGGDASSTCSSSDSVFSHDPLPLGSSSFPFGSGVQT

[21] = biological target: T20, MLK3 (Homo sapiens, UniProt Q16584)
T20 construct: purchased DiscoveRx KINOMEscan (Ambit Biosciences)

[22] = biological target: T21, GSK3A (Homo sapiens, UniProt P49840)
T21 construct: purchased DiscoveRx KINOMEscan (Ambit Biosciences)

[23] = biological target: T22, YES (Homo sapiens, UniProt P07947)
T22 construct: purchased DiscoveRx KINOMEscan (Ambit Biosciences)
T22 sequence (P07947 whole entry): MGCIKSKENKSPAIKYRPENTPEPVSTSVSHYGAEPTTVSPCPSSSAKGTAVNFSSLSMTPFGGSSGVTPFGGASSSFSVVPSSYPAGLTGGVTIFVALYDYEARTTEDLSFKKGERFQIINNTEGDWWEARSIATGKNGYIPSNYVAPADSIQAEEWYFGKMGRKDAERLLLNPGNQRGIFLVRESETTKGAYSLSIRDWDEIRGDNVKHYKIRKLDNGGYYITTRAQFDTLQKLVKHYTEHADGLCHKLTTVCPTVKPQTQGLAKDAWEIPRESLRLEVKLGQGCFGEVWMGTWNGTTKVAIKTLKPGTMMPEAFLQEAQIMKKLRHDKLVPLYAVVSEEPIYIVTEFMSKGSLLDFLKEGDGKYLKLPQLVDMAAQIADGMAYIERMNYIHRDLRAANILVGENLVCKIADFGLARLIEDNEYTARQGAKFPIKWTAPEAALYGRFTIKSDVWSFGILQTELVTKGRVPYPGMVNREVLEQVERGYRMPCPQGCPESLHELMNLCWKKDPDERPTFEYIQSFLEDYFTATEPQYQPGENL

[24] = biological target: T23, LATS2 (Homo sapiens, UniProt Q9NRM7)
T23 construct: purchased DiscoveRx KINOMEscan (Ambit Biosciences)

[25] = biological target: T24, LRRK2(G2019S) (Homo sapiens, UniProt Q5S007, G2019S)
T24 construct: purchased DiscoveRx KINOMEscan (Ambit Biosciences)

[26] = biological target: T25, RAF1 (Homo sapiens, UniProt P04049)
T25 construct: purchased DiscoveRx KINOMEscan (Ambit Biosciences)

[27] = biological target: T26, CDKL3 (Homo sapiens, UniProt Q8IVW4)
T26 construct: purchased DiscoveRx KINOMEscan (Ambit Biosciences)

[28] = biological target: T27, EGFR(L858R) (Homo sapiens, UniProt P00533, L858R)
T27 construct: purchased DiscoveRx KINOMEscan (Ambit Biosciences)
T27 sequence (P00533 25-1210 L858R): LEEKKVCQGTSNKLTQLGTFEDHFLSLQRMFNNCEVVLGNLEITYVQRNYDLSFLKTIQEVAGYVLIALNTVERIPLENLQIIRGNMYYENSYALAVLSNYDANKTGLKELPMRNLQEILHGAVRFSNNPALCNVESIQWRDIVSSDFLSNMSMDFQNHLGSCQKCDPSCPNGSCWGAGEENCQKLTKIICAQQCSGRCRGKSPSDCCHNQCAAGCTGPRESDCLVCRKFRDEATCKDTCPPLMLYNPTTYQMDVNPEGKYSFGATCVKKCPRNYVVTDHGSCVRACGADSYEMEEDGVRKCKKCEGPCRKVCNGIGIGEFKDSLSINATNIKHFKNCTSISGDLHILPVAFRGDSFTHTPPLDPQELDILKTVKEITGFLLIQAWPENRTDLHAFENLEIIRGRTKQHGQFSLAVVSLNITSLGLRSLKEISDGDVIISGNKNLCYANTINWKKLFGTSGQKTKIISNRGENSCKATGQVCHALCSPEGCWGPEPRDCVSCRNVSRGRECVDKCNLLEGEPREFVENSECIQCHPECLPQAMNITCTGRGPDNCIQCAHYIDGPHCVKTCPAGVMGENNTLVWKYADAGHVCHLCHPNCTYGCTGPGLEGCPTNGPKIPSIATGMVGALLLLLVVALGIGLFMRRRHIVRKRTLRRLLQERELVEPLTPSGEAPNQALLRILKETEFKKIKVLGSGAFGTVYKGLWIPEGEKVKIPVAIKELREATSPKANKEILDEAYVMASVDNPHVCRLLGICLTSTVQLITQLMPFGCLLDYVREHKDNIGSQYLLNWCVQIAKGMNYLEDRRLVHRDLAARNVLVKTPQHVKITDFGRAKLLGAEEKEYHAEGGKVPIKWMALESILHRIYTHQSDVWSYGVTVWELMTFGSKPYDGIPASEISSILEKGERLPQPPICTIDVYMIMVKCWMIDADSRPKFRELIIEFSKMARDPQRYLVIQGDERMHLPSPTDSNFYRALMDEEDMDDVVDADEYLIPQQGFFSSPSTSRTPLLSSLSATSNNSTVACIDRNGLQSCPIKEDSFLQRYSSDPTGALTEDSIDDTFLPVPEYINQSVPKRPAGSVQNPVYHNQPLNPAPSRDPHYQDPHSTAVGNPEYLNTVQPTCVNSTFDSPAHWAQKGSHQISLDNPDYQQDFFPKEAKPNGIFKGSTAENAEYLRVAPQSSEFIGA

[29] = biological target: T28, OSR1 (Homo sapiens, UniProt O95747)
T28 construct: purchased DiscoveRx KINOMEscan (Ambit Biosciences)

[30] = biological target: T29, EGFR(S752-I759del) (Homo sapiens, UniProt P00533, DEL752-759)
T29 construct: purchased DiscoveRx KINOMEscan (Ambit Biosciences)
T29 sequence (P00533 with tags, fused parts or gaps DEL752-759 limits assumed): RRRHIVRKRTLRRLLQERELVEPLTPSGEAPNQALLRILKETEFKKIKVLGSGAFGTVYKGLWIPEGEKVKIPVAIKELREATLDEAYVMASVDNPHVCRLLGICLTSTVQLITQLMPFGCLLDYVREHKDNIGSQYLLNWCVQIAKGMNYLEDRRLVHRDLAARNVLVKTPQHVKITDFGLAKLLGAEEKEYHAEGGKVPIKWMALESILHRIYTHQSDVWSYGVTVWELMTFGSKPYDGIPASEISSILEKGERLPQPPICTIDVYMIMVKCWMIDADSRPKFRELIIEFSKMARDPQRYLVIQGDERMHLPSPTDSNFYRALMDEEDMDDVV

[31] = biological target: T30, CTK (Homo sapiens, UniProt P42679)
T30 construct: purchased DiscoveRx KINOMEscan (Ambit Biosciences)

[32] = biological target: T31, MEK5 (Homo sapiens, UniProt Q13163)
T31 construct: purchased DiscoveRx KINOMEscan (Ambit Biosciences)

[33] = biological target: FLT3-D835Y (Homo sapiens, UniProt P36888, D835Y); set-up: purchased DiscoveRx KINOMEscan (Ambit Biosciences)
[34] = biological target: T32, DMPK (Homo sapiens, UniProt Q09013)
T32 construct: purchased DiscoveRx KINOMEscan (Ambit Biosciences)
T32 sequence (Q09013 1-629): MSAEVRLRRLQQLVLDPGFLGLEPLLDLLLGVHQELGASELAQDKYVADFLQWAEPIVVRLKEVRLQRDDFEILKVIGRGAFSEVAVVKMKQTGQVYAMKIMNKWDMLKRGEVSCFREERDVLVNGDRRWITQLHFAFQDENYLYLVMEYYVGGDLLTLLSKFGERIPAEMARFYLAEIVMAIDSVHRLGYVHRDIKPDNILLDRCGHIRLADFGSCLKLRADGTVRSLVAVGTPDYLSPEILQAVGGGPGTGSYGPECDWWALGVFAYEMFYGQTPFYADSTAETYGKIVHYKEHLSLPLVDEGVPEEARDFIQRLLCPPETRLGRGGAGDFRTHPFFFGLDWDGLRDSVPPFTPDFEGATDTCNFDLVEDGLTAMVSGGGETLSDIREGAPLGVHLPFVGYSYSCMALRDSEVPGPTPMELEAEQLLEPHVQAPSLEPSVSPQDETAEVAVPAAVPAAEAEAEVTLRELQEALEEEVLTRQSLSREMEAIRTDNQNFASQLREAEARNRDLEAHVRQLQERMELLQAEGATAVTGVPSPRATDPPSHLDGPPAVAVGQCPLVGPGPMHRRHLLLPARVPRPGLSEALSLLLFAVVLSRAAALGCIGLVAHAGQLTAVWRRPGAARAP

T2 sequence (Q9P289 whole entry): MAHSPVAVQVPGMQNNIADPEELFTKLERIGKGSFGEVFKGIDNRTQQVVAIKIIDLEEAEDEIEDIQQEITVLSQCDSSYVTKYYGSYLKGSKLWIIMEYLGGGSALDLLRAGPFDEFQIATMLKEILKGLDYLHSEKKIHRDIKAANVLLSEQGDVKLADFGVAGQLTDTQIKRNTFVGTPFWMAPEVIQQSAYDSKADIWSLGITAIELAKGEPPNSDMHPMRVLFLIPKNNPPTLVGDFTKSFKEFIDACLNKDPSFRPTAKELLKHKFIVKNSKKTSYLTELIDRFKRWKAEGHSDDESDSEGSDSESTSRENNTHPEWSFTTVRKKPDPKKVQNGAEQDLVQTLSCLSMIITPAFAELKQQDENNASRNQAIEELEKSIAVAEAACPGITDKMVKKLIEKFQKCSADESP
T1 sequence (P31152 whole entry): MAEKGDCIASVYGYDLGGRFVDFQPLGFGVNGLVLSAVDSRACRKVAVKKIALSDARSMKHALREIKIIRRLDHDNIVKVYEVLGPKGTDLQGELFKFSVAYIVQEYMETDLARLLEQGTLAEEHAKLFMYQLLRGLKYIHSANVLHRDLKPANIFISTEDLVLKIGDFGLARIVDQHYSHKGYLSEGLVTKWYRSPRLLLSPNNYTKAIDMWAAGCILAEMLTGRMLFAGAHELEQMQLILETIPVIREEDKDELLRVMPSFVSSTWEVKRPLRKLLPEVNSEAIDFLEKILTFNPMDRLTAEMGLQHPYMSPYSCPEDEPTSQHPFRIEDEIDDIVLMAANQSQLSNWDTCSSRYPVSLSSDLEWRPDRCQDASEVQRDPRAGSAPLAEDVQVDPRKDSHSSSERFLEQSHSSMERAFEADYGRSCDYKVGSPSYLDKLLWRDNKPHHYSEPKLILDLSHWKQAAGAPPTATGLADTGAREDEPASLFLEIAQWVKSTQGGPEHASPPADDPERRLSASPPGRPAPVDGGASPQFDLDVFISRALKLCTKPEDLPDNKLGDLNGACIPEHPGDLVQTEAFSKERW

## CC(C)(C)c1cc(NC(=O)Nc2ccc(Oc3ncnc4[nH]ncc34)c(F)c2)no1 [SKLB-677, 1-(4-(1H-pyrazolo[3,4-d]pyrimidin-4-yloxy)-3-fluorophenyl)-3-(5-tert-butylisoxazol-3-yl)urea]
[1]
  remaining binding at 10 µM: 98%
[2]
  remaining binding at 10 µM: 24%
[3]
  remaining binding at 10 µM: 6.4%
[4]
  remaining binding at 10 µM: 93%
[5]
  remaining binding at 10 µM: 100%
[6]
  remaining binding at 10 µM: 100%
[7]
  remaining binding at 10 µM: 2.6%
[8]
  remaining binding at 10 µM: 69%
[9]
  remaining binding at 10 µM: 81%
[10]
  remaining binding at 10 µM: 4.8%
[11]
  remaining binding at 10 µM: 76%
[12]
  remaining binding at 10 µM: 78%
[13]
  remaining binding at 10 µM: 12%
[14]
  remaining binding at 10 µM: 0.95%
[15]
  remaining binding at 10 µM: 0.3%
[16]
  remaining binding at 10 µM: 100%
[17]
  remaining binding at 10 µM: 84%
[18]
  remaining binding at 10 µM: 19%
[19]
  remaining binding at 10 µM: 9.2%
[20]
  remaining binding at 10 µM: 4.8%
[21]
  remaining binding at 10 µM: 24%
[22]
  remaining binding at 10 µM: 30%
[23]
  remaining binding at 10 µM: 27%
[24]
  remaining binding at 10 µM: 26%
[25]
  remaining binding at 10 µM: 78%
[26]
  remaining binding at 10 µM: 3.5%
[27]
  remaining binding at 10 µM: 0.75%
[28]
  remaining binding at 10 µM: 29%
[29]
  remaining binding at 10 µM: 36%
[30]
  remaining binding at 10 µM: 38%
[31]
  remaining binding at 10 µM: 37%
[32]
  remaining binding at 10 µM: 13%
[33]
  remaining binding at 10 µM: 3.2%
[34]
  remaining binding at 10 µM: 100%
